Measured values from PubChem BioAssay AID1645866 (Buhrlage Lab, Dana-Farber Cancer Institute and Novartis …, 2021).
Calls of active or inactive are those of the source.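 How the source made its calls: active means in confirmatory dose-response testing, peak deubiquitinase inhibition of 30% or more; inactive means the rest.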

Molecular target: Ubiquitin carboxyl-terminal hydrolase 28 (Homo sapiens) (UniProt Q96RU2)
Assay: Ubiquitin-specific peptidase 28 DUB inhibitors, biochemical concentration-dependence assay, validation of primary screening hits (AID 1645866)
Conditions: purified USP28, ubiquitin-rhodamine fluorescence, 30 min

Sequence of Ubiquitin carboxyl-terminal hydrolase 28 (Homo sapiens) (Q96RU2 whole entry, looked up): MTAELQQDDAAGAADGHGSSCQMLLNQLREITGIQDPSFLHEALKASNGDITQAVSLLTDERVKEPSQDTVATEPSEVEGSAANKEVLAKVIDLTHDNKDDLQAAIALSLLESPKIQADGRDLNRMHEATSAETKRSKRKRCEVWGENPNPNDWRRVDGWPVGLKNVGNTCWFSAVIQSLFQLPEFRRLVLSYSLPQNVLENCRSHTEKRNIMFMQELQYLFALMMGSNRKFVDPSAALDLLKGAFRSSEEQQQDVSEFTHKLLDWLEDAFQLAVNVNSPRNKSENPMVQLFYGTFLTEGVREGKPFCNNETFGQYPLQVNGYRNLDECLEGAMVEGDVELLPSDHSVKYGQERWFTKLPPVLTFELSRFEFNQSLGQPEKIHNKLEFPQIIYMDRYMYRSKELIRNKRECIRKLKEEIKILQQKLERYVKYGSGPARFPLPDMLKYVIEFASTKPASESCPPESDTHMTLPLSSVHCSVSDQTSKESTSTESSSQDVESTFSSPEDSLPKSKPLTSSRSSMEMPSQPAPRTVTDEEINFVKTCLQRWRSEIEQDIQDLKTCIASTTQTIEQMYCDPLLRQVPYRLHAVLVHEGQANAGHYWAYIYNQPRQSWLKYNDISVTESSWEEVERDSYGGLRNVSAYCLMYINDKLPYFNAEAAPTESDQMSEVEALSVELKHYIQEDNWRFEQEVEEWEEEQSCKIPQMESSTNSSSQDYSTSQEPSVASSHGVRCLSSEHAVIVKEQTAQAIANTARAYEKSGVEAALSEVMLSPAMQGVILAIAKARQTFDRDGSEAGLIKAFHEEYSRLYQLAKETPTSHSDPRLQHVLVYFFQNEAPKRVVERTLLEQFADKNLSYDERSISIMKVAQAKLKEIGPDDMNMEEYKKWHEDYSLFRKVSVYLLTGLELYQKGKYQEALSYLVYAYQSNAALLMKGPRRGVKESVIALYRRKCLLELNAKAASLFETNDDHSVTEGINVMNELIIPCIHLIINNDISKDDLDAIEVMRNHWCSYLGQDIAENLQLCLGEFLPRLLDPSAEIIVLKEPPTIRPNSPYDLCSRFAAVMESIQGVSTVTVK

COc1ccccc1NC(=O)Cn1cc(C(=O)c2ccc(C)cc2)c(=O)c2ccccc21
IC50: 21.8 µM

Cc1nn(-c2ccc([N+](=O)[O-])cc2)c(C)c1-c1nc2ccccc2[nH]1
IC50: 21 µM

COc1cc(NC(=O)Cc2ccccc2)ccc1NC(=O)c1cc2ccccc2o1
IC50: 3.01 µM

Cc1c(-c2nnc(-c3ccccn3)o2)nnn1-c1cccc(Cl)c1
IC50: 25.6 µM

O=S(=O)(Nc1ccc2oc(-c3ccncc3)nc2c1)c1ccccc1
IC50: 40.8 µM

O=C(Nc1ccc2c(c1)OCCO2)Nc1ccc2nc3n(c(=O)c2c1)CCCC3
IC50: 15.1 µM

COc1ccc(NC(=O)COc2ccc3ccc(=O)oc3c2)cc1
IC50: 31.1 µM

CC1(C(=O)NC2CCCC2)Cn2c(cc3ccccc32)C(=O)N1c1ccc(F)cc1 (stereo not drawn)
IC50: 21.3 µM

COc1ccccc1C(=O)NCC(c1ccc2c(c1)CCCN2C)N1CCCC1 (stereo not drawn)
IC50: > 50 µM (inactive)

CCOc1ccc(-c2noc(-c3nn(-c4cccc(OC)c4)ccc3=O)n2)cc1
IC50: 4.44 µM

COc1cccc(-c2nc(C(N)=O)c3[nH]c(=O)n(-c4cccc(Cl)c4)c3n2)c1OC
IC50: > 50 µM (inactive)

Cc1cc(C(=O)N2CCOCC2)c(C)n1-c1ccc(O)cc1
IC50: 41.7 µM

O=c1sc2ccccc2c(=O)n1Cc1cccc(C(F)(F)F)c1
IC50: 1.09 µM

Cc1ccc(NC2=NC(c3ccco3)n3c(nc(C)cc3=O)N2)c(C)c1 (stereo not drawn)
IC50: 8.38 µM

O=C(CN1C(=O)COc2ccc(Cl)cc21)Nc1cccc2ncccc12
IC50: > 50 µM (inactive)

O=c1c2ccccc2c(-c2nc(-c3ccncc3)no2)cn1-c1ccccc1
IC50: 2.56 µM

COc1ccc(C(=O)Nc2ccc3c(c2)C(=O)N(C)c2ccccc2O3)cc1
IC50: 8.9 µM

CSc1cccc(NC(=O)CCc2ccc3nc(NC(C)=O)sc3c2)c1
IC50: > 50 µM (inactive)

COc1ccc(C2SCC(=O)Nc3c2c(=O)[nH]n3C2CCCCC2)cc1 (stereo not drawn)
IC50: 24.6 µM

Cn1ccc2c(cc(C(=O)NCCC3=CCCCC3)n2C)c1=O
IC50: 21.1 µM

CC1CCN(c2nc(F)c3c(c2F)S(=O)(=O)CCN3Cc2cccnc2)CC1
IC50: > 50 µM (inactive)

CC(=O)c1ccc(NC(=O)CSc2nc(-c3ccccc3)nc3c2COC(C)(C)C3)cc1
IC50: 4.07 µM

CC(C)(C)c1ccc(C(=O)Nc2ccc(Oc3cccnc3)nc2)cc1
IC50: 20.4 µM

CCc1ccc(NC(=O)CN=C2NS(=O)(=O)C(c3ccc(CC)cc3)=C2C)cc1
IC50: 21.7 µM

Cn1c(=O)sc2cc(NC(=O)c3ccc(Br)cc3)ccc21
IC50: 2.76 µM

O=C(COc1cccc2c1CCN(Cc1cccnc1)C2=O)Nc1ccc2c(c1)OCCO2
IC50: 1.34 µM

Cc1cc(=O)c2c(O)oc(O)c3c(O)cc(=O)c1c32
IC50: 22 µM

COC(=O)c1cc2c(ccn2C)n1CC(=O)NC1CCCC1
IC50: > 50 µM (inactive)

O=C(NCC(c1cccnc1)N1CCc2ccccc2C1)C(=O)Nc1ccc2c(c1)OCO2 (stereo not drawn)
IC50: 28.8 µM

Cc1cc(C)c(NC(=O)Cn2c(=O)n(CCC(=O)NCc3ccc4c(c3)OCO4)c(=O)c3sccc32)c(C)c1
IC50: 2.67 µM

FC(F)(F)c1cccc(CSc2ccc3nnc(-c4ccccn4)n3n2)c1
IC50: 1.75 µM

CC1CC(=O)Nc2ccccc2N1S(=O)(=O)c1ccc(C#N)cc1 (stereo not drawn)
IC50: 33.1 µM

COc1ccc(NC(=O)C2CCN(c3cncnc3N(C)C)CC2)cc1OC
IC50: 6.74 µM

Cc1nn(-c2ccccc2)c(C)c1C(=O)OCC(=O)Nc1cccc(C#N)c1
IC50: 15.9 µM

CCOc1ccc2[nH]c(=O)c(CN(C(=O)c3cccs3)C3CCCC3)cc2c1
IC50: 14.1 µM

Cc1nn(C)c2c1[C@@H](c1ccc(F)c(Br)c1)[C@H](NC(=O)c1ccccc1)C(=O)N2
IC50: 3.79 µM

O=C(CCn1c(=O)c2ccccc2n(Cc2cc(=O)n3ccccc3n2)c1=O)NCCc1ccc(Cl)cc1
IC50: 19.4 µM

Fc1ccc(Nc2nc(Nc3cccc(F)c3)nc3nccnc23)cc1
IC50: > 50 µM (inactive)

Cc1cc(NC(=O)c2[nH]nc3c2CCc2ccccc2-3)no1
IC50: 6.37 µM

NS(=O)(=O)c1cc(C(=O)OCC(=O)NC2CCCc3ccccc32)ccc1Cl (stereo not drawn)
IC50: 31.2 µM

O=C(CC1C(=O)Nc2nc(-c3ccccc3)nn21)Nc1cccc2ccccc12 (stereo not drawn)
IC50: 15 µM

COc1cccc(-c2cc(C(=O)Nc3cc(C)n(Cc4ccc(Cl)cc4)n3)no2)c1
IC50: 40.5 µM

Cc1ccc(C(=O)Nc2ccc(S(=O)(=O)N3CCCC3)cc2)cc1Br
IC50: 3.32 µM

Cc1ccn(-c2ccc(NC(=O)c3ccccc3Sc3ccccc3C#N)cc2)n1
IC50: 36.1 µM

CCOc1ccc(-c2ccc3nnc(SCC(=O)Nc4cccc(C(C)=O)c4)n3n2)cc1
IC50: 1.65 µM

CC1CCc2c(sc3ncnc(NC4CCN(CC(N)=O)CC4)c23)C1 (stereo not drawn)
IC50: > 50 µM (inactive)

COCCNC(=O)Cn1c(=O)n(Cc2ccccc2)c(=O)c2c3c(sc21)CCC3
IC50: 32.7 µM

Cn1ncc2c(=O)n(Cc3cccc(Cl)c3)cnc21
IC50: 12.9 µM

CCc1cc2c(=O)[nH]c(Cc3ccc(OC)cc3)nc2s1
IC50: 19.7 µM

O=C(Cn1c(=O)n(Cc2ccco2)c(=O)c2ccc(C(=O)NC3CCCC3)cc21)NCc1ccco1
IC50: 27.5 µM

Cc1ccc2c(c1)N=C(c1ccc([N+](=O)[O-])cc1)CO2
IC50: > 50 µM (inactive)

CCc1ccc(-n2c(=O)c3ccccc3n(CC(=O)NCCC3=CCCCC3)c2=O)cc1
IC50: 14.5 µM

COc1ccc(NC(=O)CN2C(=O)c3ccccc3Sc3ccc(C(=O)N4CCCC4)cc32)c(OC)c1
IC50: 18.9 µM

Cc1ccc(NC(=O)c2cnc3c(c2)c(=O)n(C)c(=O)n3C)cc1
IC50: 2.07 µM

Cc1nc(C(=O)N[C@@H](C)C(=O)NCc2ccc3c(c2)OCO3)cc2c1[nH]c1ccccc12
IC50: 22.5 µM

CO[C@H]1CC[C@H](O)c2c1oc1c3c4c(c(O)c1c2=O)-c1c(cc2c(Cl)c(C)n(N)c(=O)c2c1O)C[C@@H]4OCO3
IC50: 20.3 µM

Cc1ccccc1NC(=O)Cn1cc(-c2nc(C3CC3)no2)ccc1=O
IC50: > 50 µM (inactive)

O=C(COC(=O)c1ccc2[nH]c3c(c2c1)CCCC3)Nc1ccc2c(c1)OCO2
IC50: 23.6 µM

O=S(=O)(c1ccc2c(c1)OCCO2)N(Cc1ccccc1)Cc1nnc(-c2ccccc2)o1
IC50: > 50 µM (inactive)

O=C(NCCc1ccccn1)c1cn2ccnc(-c3ccc(F)cc3)c2n1
IC50: > 50 µM (inactive)

Cn1c(CCN2CCCC2)nc2cc(NS(=O)(=O)c3ccccc3)ccc21
IC50: > 50 µM (inactive)

Cc1c(C)n(-c2ccccc2)c2ncn(CC(=O)NCCCc3ccccc3)c(=O)c12
IC50: 23.1 µM

COc1cccc(N2CCN(C(=O)c3cc(NC(C)=O)cc4nc(C)ccc34)CC2)c1
IC50: > 50 µM (inactive)

CCOC(=O)c1sc2nc(CC(=O)OC)nc(NCc3ccco3)c2c1C
IC50: > 50 µM (inactive)

CCc1cc2cc3c(cc2nc1SCC(=O)Nc1cccc(C(C)=O)c1)OCO3
IC50: 2.58 µM

O=C1CC(C(=O)Nc2ccccc2Cl)n2nc(-c3ccccc3)cc2N1 (stereo not drawn)
IC50: 19.3 µM

Fc1cnc(N2CC[C@H]3CO[C@H](CNc4ncccn4)[C@H]3C2)nc1
IC50: > 50 µM (inactive)

O=C(COc1nc2ccccc2nc1N1CCOCC1)NC(c1ccccc1)c1ccccc1
IC50: > 50 µM (inactive)

O=[N+]([O-])c1cccc(-c2noc(CSc3ccccc3)n2)c1
IC50: 3.72 µM

O=C(c1cc2ccccc2o1)N1CC=C(c2ccccc2)CC1
IC50: > 50 µM (inactive)

Cc1ccc2[nH]c(=O)c(CN(CC3COCCO3)S(=O)(=O)c3ccc(F)cc3)cc2c1 (stereo not drawn)
IC50: 13.5 µM

N#Cc1ccc(Cc2ncc(C(F)(F)F)cc2Cl)s1
IC50: 8.21 µM

COc1ccc(NC(=O)CS(=O)(=O)c2[nH]c(-c3ccc(C)cc3)nc2-c2ccccc2)cc1Cl
IC50: 31 µM
